{"source": "patent US9051313B2", "about": "“Apoptosis signal-regulating kinase inhibitors” (Gilead Sciences, Inc., priority 2012, dated 2015)", "key": {"[1]": {"biological_target": "recombinant human ASK1 kinase (Homo sapiens (Human), UniProt Q99683)", "sequence (Q99683 whole entry)": "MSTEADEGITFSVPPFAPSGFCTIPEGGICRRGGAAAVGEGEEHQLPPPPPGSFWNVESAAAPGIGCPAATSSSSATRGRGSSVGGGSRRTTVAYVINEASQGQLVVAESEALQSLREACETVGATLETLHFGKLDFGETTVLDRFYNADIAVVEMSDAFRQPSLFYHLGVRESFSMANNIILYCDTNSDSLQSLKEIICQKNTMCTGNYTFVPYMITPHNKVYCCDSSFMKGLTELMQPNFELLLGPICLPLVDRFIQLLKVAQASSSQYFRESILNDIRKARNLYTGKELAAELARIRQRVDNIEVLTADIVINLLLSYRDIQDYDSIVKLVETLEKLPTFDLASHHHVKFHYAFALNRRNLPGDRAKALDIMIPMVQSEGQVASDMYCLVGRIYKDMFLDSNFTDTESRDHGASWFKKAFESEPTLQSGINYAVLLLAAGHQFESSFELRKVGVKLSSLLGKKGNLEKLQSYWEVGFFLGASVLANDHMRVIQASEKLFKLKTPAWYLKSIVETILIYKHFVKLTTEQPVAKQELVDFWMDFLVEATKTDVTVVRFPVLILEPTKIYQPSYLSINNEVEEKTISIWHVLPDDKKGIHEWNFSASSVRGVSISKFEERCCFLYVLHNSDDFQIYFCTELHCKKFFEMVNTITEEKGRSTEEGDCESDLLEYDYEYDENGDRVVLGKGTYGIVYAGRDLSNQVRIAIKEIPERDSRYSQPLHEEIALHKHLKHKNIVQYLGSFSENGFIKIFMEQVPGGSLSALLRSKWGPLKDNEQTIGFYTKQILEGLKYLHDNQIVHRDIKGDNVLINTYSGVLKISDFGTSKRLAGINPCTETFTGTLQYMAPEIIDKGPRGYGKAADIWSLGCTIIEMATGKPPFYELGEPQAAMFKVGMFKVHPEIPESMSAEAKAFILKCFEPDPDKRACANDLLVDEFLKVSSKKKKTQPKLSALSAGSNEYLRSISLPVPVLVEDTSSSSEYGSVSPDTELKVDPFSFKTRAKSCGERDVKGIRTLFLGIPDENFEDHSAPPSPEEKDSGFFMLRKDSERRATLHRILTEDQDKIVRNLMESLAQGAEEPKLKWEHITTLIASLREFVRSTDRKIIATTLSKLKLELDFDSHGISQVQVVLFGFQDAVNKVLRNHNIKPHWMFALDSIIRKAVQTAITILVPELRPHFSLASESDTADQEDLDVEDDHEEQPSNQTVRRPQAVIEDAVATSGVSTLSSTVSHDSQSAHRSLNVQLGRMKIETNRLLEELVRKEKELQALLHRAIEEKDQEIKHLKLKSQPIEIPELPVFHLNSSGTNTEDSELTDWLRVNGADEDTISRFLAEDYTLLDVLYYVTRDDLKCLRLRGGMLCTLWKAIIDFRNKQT", "test": "TR-FRET ASK1 kinase assay (HTRF KinEASE-STK)", "type": "biochemical", "excerpt": "Dephosphorylated recombinant human ASK1 kinase was from Gilead Sciences. […] ATP (catalogue # 7724) was from Affymetrix (Santa Clara, Calif.) and test compounds were from Gilead Sciences. HTRF KinEASE™-STK S3 kit was obtained from Cisbio (Bedford, Mass.). All other reagents were of the highest grade commercially available. The assay measures the phosphorylation level of a biotinylated peptide substrate by the ASK1 kinase using HTRF detection (6.1). This is a competitive, time-resolved fluorescence resonance energy transfer (TR-FRET) immunoassay, based on HTRF® KinEASE™-STK manual from Cisbio (6.1). […] Peptide antibody labeled with 1× Eu^3+ Cryptate buffer containing 10 mM EDTA and 125 nM Streptavidin XL665 are added to stop the reaction and phosphorylated peptide substrate is detected using Envision 2103 Multilabeled reader from PerkinElmer. The fluorescence is measured at 615 nm (Cryptate) and 665 nm (XL665) and a ratio of 665 nm/615 nm is calculated for each well. The resulting TR-FRET level (a ratio of 665 nm/615 nm) is proportional to the phosphorylation level. Under these assay conditions, the degree of phosphorylation of peptide substrate was linear with time and concentration for the enzyme. The assay system yielded consistent results with regard to Km and specific activities for the enzyme. For inhibition experiments (IC50 values), activities were performed with constant concentrations of ATP, peptide and several fixed concentrations of inhibitors. […] All enzyme activity data are reported as an average of quadruplicate determination. […] Enzyme activity is expressed as the amount of Phosphate incorporated into substrate peptide from ATP. Range is the maximum y range (no inhibitor, DMSO control) and s is a slope factor (6.2). Results"}, "[2]": {"biological_target": "ASK1 (kinase active, 631-1381 of rat ASK1 cDNA) in 293/AP1-Luc cells (Rattus norvegicus, UniProt A0A8I6AEL0)", "sequence (A0A8I6AEL0 1-1381)": "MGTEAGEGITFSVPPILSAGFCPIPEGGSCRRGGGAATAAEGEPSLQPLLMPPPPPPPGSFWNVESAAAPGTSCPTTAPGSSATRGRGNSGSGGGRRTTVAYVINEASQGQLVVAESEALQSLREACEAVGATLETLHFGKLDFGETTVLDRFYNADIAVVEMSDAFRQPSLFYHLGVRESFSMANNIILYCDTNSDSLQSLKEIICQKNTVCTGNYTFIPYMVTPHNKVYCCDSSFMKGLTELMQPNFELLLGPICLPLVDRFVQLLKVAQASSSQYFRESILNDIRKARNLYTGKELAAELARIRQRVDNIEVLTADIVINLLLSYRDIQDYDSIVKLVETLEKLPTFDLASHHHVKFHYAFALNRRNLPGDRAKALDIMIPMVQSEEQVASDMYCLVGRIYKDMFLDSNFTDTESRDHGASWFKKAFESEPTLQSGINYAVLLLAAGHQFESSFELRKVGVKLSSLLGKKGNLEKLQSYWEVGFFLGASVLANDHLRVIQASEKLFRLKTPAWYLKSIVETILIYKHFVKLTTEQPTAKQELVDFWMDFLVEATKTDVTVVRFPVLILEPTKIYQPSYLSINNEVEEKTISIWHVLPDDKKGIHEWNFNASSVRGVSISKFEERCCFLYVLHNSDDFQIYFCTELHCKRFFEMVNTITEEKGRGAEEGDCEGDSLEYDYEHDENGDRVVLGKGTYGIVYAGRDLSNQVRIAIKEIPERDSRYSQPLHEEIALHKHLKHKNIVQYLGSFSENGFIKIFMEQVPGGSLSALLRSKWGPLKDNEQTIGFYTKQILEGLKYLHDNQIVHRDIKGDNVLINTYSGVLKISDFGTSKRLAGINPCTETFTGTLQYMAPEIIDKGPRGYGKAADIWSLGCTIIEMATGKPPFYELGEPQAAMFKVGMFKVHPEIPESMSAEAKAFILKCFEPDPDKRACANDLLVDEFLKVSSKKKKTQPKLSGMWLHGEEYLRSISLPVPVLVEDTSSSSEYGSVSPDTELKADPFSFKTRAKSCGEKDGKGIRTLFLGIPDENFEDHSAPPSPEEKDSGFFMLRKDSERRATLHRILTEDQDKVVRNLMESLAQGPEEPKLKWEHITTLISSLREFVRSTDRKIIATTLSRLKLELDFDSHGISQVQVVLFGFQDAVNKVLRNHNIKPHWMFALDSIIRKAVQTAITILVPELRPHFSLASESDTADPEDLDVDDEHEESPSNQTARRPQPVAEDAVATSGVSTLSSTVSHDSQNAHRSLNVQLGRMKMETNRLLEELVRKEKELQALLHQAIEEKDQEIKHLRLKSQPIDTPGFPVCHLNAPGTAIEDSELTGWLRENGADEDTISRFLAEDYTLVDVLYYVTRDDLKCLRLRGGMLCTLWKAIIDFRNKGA", "test": "ASK1 293 cell-based assay (Cellular EC50), AP-1:luciferase reporter", "settings": "293/AP1-Luc cells infected with adenovirus expressing ASK1, 24 hours", "experimental": "ASK1 (Apoptosis Signal-Regulating Kinase 1) 293 cell-based assay (Cellular EC50)\nThe cellular potency of compounds was assayed in cells stably expressing an AP-1: luciferase reporter construct (293/AP1-Luc cells—Panomics Inc., 6519 Dumbarton Circle, Fremont, Calif.). Cells were infected with an adenovirus expressing kinase active ASK1 (631-1381 of rat ASK1 cDNA), which will activate the AP-1 transcription factor and increase the expression of luciferase. Inhibitors of ASK1 will decrease the enzyme activity of ASK1 and therefore decrease the activity of AP-1 transcription factor and the expression of luciferase.\n2. Reference Materials • 1. Panomics 293/AP1-Luc stable cell-line product insert. • 2. Promega Steady-Glo Luciferase Assay System product insert. 3. Media Required 3. Complete Growth Medium, “CGM” • a. DMEM (MediaTech) • b. 10% FBS • c. 1% PSG • d. 100 ug/mL HygromycinB 4. Assay Medium, “AM” • a. DMEM (Invitrogen) • b. 25 mM HEPES • c. 1 mM Sodium Pyruvate • d. 1% PSG 4. Methods Maintenance: • 1. 293/AP1-Luc Maintain 293/Acells per vendor's instructions; harvest cells at ˜80% confluence in T150 flasks as follows: • a. Aspirate media, wash gently with ˜12 mL sterile D-PBS, aspirate. • b. Add 5 mL Trypsin-EDTA, tilt gently to coat flask, and incubate ˜5 min. at 37° C. • c. […] Aspirate media from cell pellet, add 20 to 30 mL CGM, resuspend pellet by pipeting 6×, pass through cell strainer to disperse clumps (if necessary), and count cells with hemocytometer. Assay Day 1: 2. Harvest cells as above, except resuspend cell pellet. Count cells and dilute to 1.5×10^5 cells per mL; add adenovirus such that there are 5 infectious forming units per cell. 3. Prime (20 to 30 mL) and plate cells in Greiner poly-D-Lysine coated 384-well plates at 1.2×10^4 cells per well using BioTek uFill (80 uL per well). 4. Immediately dose plates with 0.4 uL of compound dose series (in 100% DMSO) incubate 24 hours in humidified incubator (37° C., 5% CO2). Assay Day 2: 5. Process plates (per manufacturer's instructions) as follows: • a. Set plates in laminar flow hood & uncover for 30 minutes at room temperature to cool. • b. Remove 60 uL of AM from assay wells • c. Add 20 uL per well Steady-Glo Firefly substrate, let sit for 10-20 minutes at room temperature • d. Cover bottom of assay plates with white backing tape. • e. Acquire data on a […] plate reader"}, "[3]": {"settings": "TR-FRET, 100 μM ATP, 4 nM ASK1 kinase, average of quadruplicate"}, "[4]": {"settings": "Compounds 6-17, same competitive TR-FRET immunoassay"}}}
{"compound": "C[C@H](n1cnnc1-c1nc(NC(=O)c2cc(-n3cnc(C4CC4)c3)c(N3CCOCC3)cn2)cs1)C(F)(F)F", "note": "[Example 3, (S)-4-(4-cyclopropyl-1H-imidazol-1-yl)-5-morpholino-N-(2-(4-(1,1,1-trifluoropropan-2-yl)-4H-1,2,4-triazol-3-yl)thiazol-4-yl)picolinamide]", "values": [{"measurement": "IC50", "setting": "[1]; [3]", "value": 2.62, "unit": "nM"}, {"measurement": "EC50", "setting": "[2]", "value": 6.74, "unit": "nM"}]}
{"compound": "CC1(O)CN(c2cnc(C(=O)Nc3csc(-c4nncn4C4CC4)n3)cc2-n2cnc(C3CC3)c2)C1", "note": "[Example 2, 4-(4-cyclopropyl-1H-imidazol-1-yl)-N-(2-(4-cyclopropyl-4H-1,2,4-triazol-3-yl)thiazol-4-yl)-5-(3-hydroxy-3-methylazetidin-1-yl)picolinamide]", "values": [{"measurement": "IC50", "setting": "[1]; [3]", "value": 1.58, "unit": "nM"}, {"measurement": "EC50", "setting": "[2]", "value": 11.2, "unit": "nM"}]}
{"compound": "C[C@H](n1cnnc1-c1nc(NC(=O)c2cc(-n3cnc(C4CC4)c3)c(N3CCC3)cn2)cs1)C(F)(F)F", "note": "[Example 7, (S)-5-(azetidin-1-yl)-4-(4-cyclopropyl-1H-imidazol-1-yl)-N-(2-(4-(1,1,1-trifluoropropan-2-yl)-4H-1,2,4-triazol-3-yl)thiazol-4-yl)picolinamide]", "values": [{"measurement": "IC50", "setting": "[1]; [4]", "value": 1.7, "unit": "nM"}]}
{"compound": "CC1(O)CCN(c2cnc(C(=O)Nc3csc(-c4nncn4C4CC4)n3)cc2-n2cnc(C3CC3)c2)CC1", "note": "[Example 15, 4-(4-cyclopropylimidazol-1-yl)-N-[2-(4-cyclopropyl-1,2,4-triazol-3-yl)-1,3-thiazol-4-yl]-5-(4-hydroxy-4-methylpiperidin-1-yl)pyridine-2-carboxamide]", "values": [{"measurement": "IC50", "setting": "[1]; [4]", "value": 2.5, "unit": "nM"}]}
{"compound": "C[C@H](n1cnnc1-c1nc(NC(=O)c2cc(-n3cnc(C4CC4)c3)c(N(C)C)cn2)cs1)C(F)(F)F", "note": "[Example 5, (S)-4-(4-cyclopropyl-1H-imidazol-1-yl)-5-(dimethylamino)-N-(2-(4-(1,1,1-trifluoropropan-2-yl)-4H-1,2,4-triazol-3-yl)thiazol-4-yl)picolinamide]", "values": [{"measurement": "IC50", "setting": "[1]; [3]", "value": 1.88, "unit": "nM"}, {"measurement": "EC50", "setting": "[2]", "value": 7.12, "unit": "nM"}]}
{"compound": "C[C@H](n1cnnc1-c1nc(NC(=O)c2cc(-n3cnc(C4CC4)c3)c(N3CCCCC3)cn2)cs1)C(F)(F)F", "note": "[Example 13, (S)-4-(4-cyclopropyl-1H-imidazol-1-yl)-5-(piperidin-1-yl)-N-(2-(4-(1,1,1-trifluoropropan-2-yl)-4H-1,2,4-triazol-3-yl)thiazol-4-yl)picolinamide]", "values": [{"measurement": "IC50", "setting": "[1]; [4]", "value": 0.7, "unit": "nM"}]}
{"compound": "O=C(Nc1csc(-c2nncn2C2CC2)n1)c1cc(-n2cnc(C3CC3)c2)c(N2CCCCC2)cn1", "note": "[Example 12, 4-(4-cyclopropylimidazol-1-yl)-N-[2-(4-cyclopropyl-1,2,4-triazol-3-yl)-1,3-thiazol-4-yl]-5-piperidin-1-ylpyridine-2-carboxamide]", "values": [{"measurement": "IC50", "setting": "[1]; [4]", "value": 2, "unit": "nM"}]}
{"compound": "O=C(Nc1csc(-c2nncn2C2CC2)n1)c1cc(-n2cnc(C3CC3)c2)c(N2CCOCC2)cn1", "note": "[Example 1, 4-(4-cyclopropyl-1H-imidazol-1-yl)-N-(2-(4-cyclopropyl-4H-1,2,4-triazol-3-yl)thiazol-4-yl)-5-morpholinopicolinamide]", "values": [{"measurement": "IC50", "setting": "[1]; [3]", "value": 1.44, "unit": "nM"}, {"measurement": "EC50", "setting": "[2]", "value": 13.2, "unit": "nM"}]}
{"compound": "C[C@H](n1cnnc1-c1nc(NC(=O)c2cc(-n3cnc(C4CC4)c3)c(N3CCN(C)CC3)cn2)cs1)C(F)(F)F", "note": "[Example 16, (S)-4-(4-cyclopropyl-1H-imidazol-1-yl)-5-(4-methylpiperazin-1-yl)-N-(2-(4-(1,1,1-trifluoropropan-2-yl)-4H-1,2,4-triazol-3-yl)thiazol-4-yl)picolinamide]", "values": [{"measurement": "IC50", "setting": "[1]; [4]", "value": 2.1, "unit": "nM"}]}
{"compound": "O=C(Nc1csc(-c2nncn2C2CC2)n1)c1cc(-n2cnc(C3CC3)c2)c(N2CCC2)cn1", "note": "[Example 6, 5-(azetidin-1-yl)-4-(4-cyclopropylimidazol-1-yl)-N-[2-(4-cyclopropyl-1,2,4-triazol-3-yl)-1,3-thiazol-4-yl]pyridine-2-carboxamide]", "values": [{"measurement": "IC50", "setting": "[1]; [4]", "value": 2.4, "unit": "nM"}]}
{"compound": "O=C(Nc1csc(-c2nncn2C2CC2)n1)c1cc(-n2cnc(C3CC3)c2)c(N2CCC(O)C2)cn1", "note": "(stereo not shown) [Example 10, 4-(4-cyclopropylimidazol-1-yl)-N-[2-(4-cyclopropyl-1,2,4-triazol-3-yl)-1,3-thiazol-4-yl]-5-(3-hydroxypyrrolidin-1-yl)pyridine-2-carboxamide]", "values": [{"measurement": "IC50", "setting": "[1]; [4]", "value": 3, "unit": "nM"}]}
{"compound": "C[C@H](n1cnnc1-c1nc(NC(=O)c2cc(-n3cnc(C4CC4)c3)c(N3CCCC3)cn2)cs1)C(F)(F)F", "note": "[Example 8, (S)-4-(4-cyclopropyl-1H-imidazol-1-yl)-5-(pyrrolidin-1-yl)-N-(2-(4-(1,1,1-trifluoropropan-2-yl)-4H-1,2,4-triazol-3-yl)thiazol-4-yl)picolinamide]", "values": [{"measurement": "IC50", "setting": "[1]; [4]", "value": 2.2, "unit": "nM"}]}
{"compound": "C[C@H](n1cnnc1-c1nc(NC(=O)c2cc(-n3cnc(C4CC4)c3)c(N3CC(C)(O)C3)cn2)cs1)C(F)(F)F", "note": "[Example 4, (S)-4-(4-cyclopropyl-1H-imidazol-1-yl)-5-(3-hydroxy-3-methylazetidin-1-yl)-N-(2-(4-(1,1,1-trifluoropropan-2-yl)-4H-1,2,4-triazol-3-yl)thiazol-4-yl)picolinamide]", "values": [{"measurement": "IC50", "setting": "[1]; [3]", "value": 1.69, "unit": "nM"}, {"measurement": "EC50", "setting": "[2]", "value": 5.21, "unit": "nM"}]}
{"compound": "C[C@H](n1cnnc1-c1nc(NC(=O)c2cc(-n3cnc(C4CC4)c3)c(N3CCC(O)C3)cn2)cs1)C(F)(F)F", "note": "(stereo partly drawn) [Example 11, 4-(4-cyclopropyl-1H-imidazol-1-yl)-5-(3-hydroxypyrrolidin-1-yl)-N-(2-(4-((S)-1,1,1-trifluoropropan-2-yl)-4H-1,2,4-triazol-3-yl)thiazol-4-yl)picolinamide]", "values": [{"measurement": "IC50", "setting": "[1]; [4]", "value": 2.2, "unit": "nM"}]}
{"compound": "O=C(Nc1csc(-c2nncn2C2CC2)n1)c1cc(-n2cnc(C3CC3)c2)c(N2CCCC2)cn1", "note": "[Example 9, 4-(4-cyclopropylimidazol-1-yl)-N-[2-(4-cyclopropyl-1,2,4-triazol-3-yl)-1,3-thiazol-4-yl]-5-pyrrolidin-1-ylpyridine-2-carboxamide]", "values": [{"measurement": "IC50", "setting": "[1]; [4]", "value": 1.9, "unit": "nM"}]}
{"compound": "C[C@H](n1cnnc1-c1nc(NC(=O)c2cc(-n3cnc(C4CC4)c3)c(N3CCC(C)(O)CC3)cn2)cs1)C(F)(F)F", "note": "[Example 14, (S)-4-(4-cyclopropyl-1H-imidazol-1-yl)-5-(4-hydroxy-4-methylpiperidin-1-yl)-N-(2-(4-(1,1,1-trifluoropropan-2-yl)-4H-1,2,4-triazol-3-yl)thiazol-4-yl)picolinamide]", "values": [{"measurement": "IC50", "setting": "[1]; [4]", "value": 1.8, "unit": "nM"}]}
{"compound": "CN1CCN(c2cnc(C(=O)Nc3csc(-c4nncn4C4CC4)n3)cc2-n2cnc(C3CC3)c2)CC1", "note": "[Example 17, 4-(4-cyclopropylimidazol-1-yl)-N-[2-(4-cyclopropyl-1,2,4-triazol-3-yl)-1,3-thiazol-4-yl]-5-(4-methylpiperazin-1-yl)pyridine-2-carboxamide]", "values": [{"measurement": "IC50", "setting": "[1]; [4]", "value": 3.1, "unit": "nM"}]}
